Consider 21 molecules from patent US10766869B2, “Triazoles for the treatment of demyelinating dieases” (Vertex Pharmaceuticals Incorporated, priority 2015, dated 2020).

This assay relates to primary rat mixed cortical cells. In words: In vitro myelination assay (MBP positive myelin strands, fold myelin pixels above background). In kind it is cell-based. Particulars: Rattus norvegicus, read-out: Fold myelin pixels above background relative to baseline of no added compound; for fold induction at 1 µM: 1.0 μM compound; for fold induction at 10 µM: 10.0 μM compound. In outline:
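Mixed cortical culture, P1 rat, 87,500-95,000 cells/well; compound present from seeding, refreshed days 6 and 10; 14 d, 37 °C, 5% CO2. Day 14: PFA fix, anti-MBP + Hoechst. Read-out: fold MBP myelin pixels over untreated, tested at 1.0 and 10.0 μM.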

For `Cc1cc(Nc2ncn(-c3cc(F)cc(F)c3)n2)c(F)c(NC2CCOCC2)c1` [Compound 810, N3-[1-(3,5-difluorophenyl)-1,2,4-triazol-3-yl]-2-fluoro-5-methyl-N1-tetrahydropyran-4-yl-benzene-1,3-diamine], the fold induction at 1 µM lay in the range of 1 to 10 and the fold induction at 10 µM lay within 1 to 10.

Take `Cc1c(Nc2ncn(-c3ccccn3)n2)cc(N2CC(N3CCOCC3)C2)cc1OC(C)C` [Compound 811, N-[3-isopropoxy-2-methyl-5-(3-morpholinoazetidin-1-yl)phenyl]-1-(2-pyridyl)-1,2,4-triazol-3-amine]: the fold induction at 1 µM lay in the range of 1 to 10 and the fold induction at 10 µM fell in the range of 10 to 100.

Regarding `Cc1cc(Nc2ncn(-c3cc(F)cc(F)c3)n2)cc(OCCN2CCOCC2)c1` [Compound 812, 1-(3,5-difluorophenyl)-N-[3-methyl-5-(2-morpholinoethoxy)phenyl]-1,2,4-triazol-3-amine], the fold induction at 1 µM lay within 10 to 100 and the fold induction at 10 µM lay in the range of 10 to 100.

`CC(=O)N[C@H]1C[C@H](Oc2cc(C)cc(Nc3ncn(-c4cc(F)cc(F)c4)n3)c2)C1` [Compound 813, N-[3-[3-[[1-(3,5-difluorophenyl)-1,2,4-triazol-3-yl]amino]-5-methyl-phenoxy]cyclobutyl]acetamide]: the fold induction at 1 µM fell in the range of 10 to 100 and the fold induction at 10 µM fell in the range of 1 to 10.

In the case of `Cc1cc(Nc2ncn(-c3cc(F)cc(F)c3)n2)cc(N2CCC3(CCOC3)CC2)c1` [Compound 814, 1-(3,5-difluorophenyl)-N-[3-methyl-5-(2-oxa-8-azaspiro[4.5]decan-8-yl)phenyl]-1,2,4-triazol-3-amine], the fold induction at 1 µM is 10 to 100 and the fold induction at 10 µM fell in the range of 1 to 10.

With `Cc1cc(Nc2ncn(-c3cc(F)cc(F)c3)n2)nc(N2CCCC(CO)C2)c1` (stereo not drawn) [Compound 815, [1-[6-[[1-(3,5-difluorophenyl)-1,2,4-triazol-3-yl]amino]-4-methyl-2-pyridyl]-3-piperidyl]methanol], the fold induction at 1 µM was 1 to 10 and the fold induction at 10 µM lay within 10 to 100.

For `COCCNC1CN(c2cc(C)cc(Nc3ncn(-c4cc(F)cc(F)c4)n3)c2)C1` [Compound 816, 1-(3,5-difluorophenyl)-N-[3-[3-(2-methoxyethylamino)azetidin-1-yl]-5-methyl-phenyl]-1,2,4-triazol-3-amine], the fold induction at 1 µM lay within 1 to 10 and the fold induction at 10 µM lay in the range of 1 to 10.

For the molecule `CCN(CC)C(=O)C1CN(c2cc(C)cc(Nc3ncn(-c4cc(F)cc(F)c4)n3)c2)C1` [Compound 817, 1-[3-[[1-(3,5-difluorophenyl)-1,2,4-triazol-3-yl]amino]-5-methyl-phenyl]-N,N-diethyl-azetidine-3-carboxamide], the fold induction at 1 µM lay in the range of 10 to 100 and the fold induction at 10 µM lay in the range of 10 to 100.

`Cc1cc(Nc2ncn(-c3cnccn3)n2)cc(N2CCCN(C3COC3)CC2)c1` [Compound 818, N-[3-methyl-5-[4-(oxetan-3-yl)-1,4-diazepan-1-yl]phenyl]-1-pyrazin-2-yl-1,2,4-triazol-3-amine]: the fold induction at 1 µM was 10 to 100 and the fold induction at 10 µM lay within 100 to 1000.

Turning to `Fc1cc(-n2cnc(Nc3cc(Cl)cc(N4CC(N5CCOCC5)C4)c3)n2)ccn1` [Compound 819, N-[3-chloro-5-(3-morpholinoazetidin-1-yl)phenyl]-1-(2-fluoro-4-pyridyl)-1,2,4-triazol-3-amine], the fold induction at 1 µM lay in the range of 10 to 100 and the fold induction at 10 µM fell in the range of 1 to 10.

For `Cc1cc(Nc2ncn(-c3cc(F)cc(F)c3)n2)c(C)c(N2CC(N3CCOCC3)C2)c1` [Compound 820, 1-(3,5-difluorophenyl)-N-[2,5-dimethyl-3-(3-morpholinoazetidin-1-yl)phenyl]-1,2,4-triazol-3-amine], the fold induction at 1 µM is 1 to 10 and the fold induction at 10 µM lay in the range of 10 to 100.

Take `Cc1cc(Nc2ncn(-c3cc(F)cc(F)c3)n2)nc(N2CC(C#N)C2)c1` [Compound 821, 1-[6-[[1-(3,5-difluorophenyl)-1,2,4-triazol-3-yl]amino]-4-methyl-2-pyridyl]azetidine-3-carbonitrile]: the fold induction at 1 µM is at most 1 and the fold induction at 10 µM is 10 to 100.

Take `Cc1cc(Nc2ncn(-c3cc(F)cc(F)c3)n2)cc(N2C[C@@H]3C[C@H]2CO3)c1` [Compound 822, 1-(3,5-difluorophenyl)-N-[3-methyl-5-[(1S,4S)-2-oxa-5-azabicyclo[2.2.1]heptan-5-yl]phenyl]-1,2,4-triazol-3-amine]: the fold induction at 1 µM lay in the range of 10 to 100 and the fold induction at 10 µM was at most 1.

Turning to `CC1(N2CCN(c3cc(C(F)F)cc(Nc4ncn(-c5cccc(F)c5)n4)n3)CC2)COC1` [Compound 823, 4-(difluoromethyl)-N-[1-(3-fluorophenyl)-1,2,4-triazol-3-yl]-6-[4-(3-methyloxetan-3-yl)piperazin-1-yl]pyridin-2-amine], the fold induction at 1 µM was in the range of 10 to 100 and the fold induction at 10 µM is 10 to 100.

For `COCCN(C)C(=O)C1CN(c2cc(C)cc(Nc3ncn(-c4cc(F)cc(F)c4)n3)c2)C1` [Compound 824, 1-[3-[[1-(3,5-difluorophenyl)-1,2,4-triazol-3-yl]amino]-5-methyl-phenyl]-N-(2-methoxyethyl)-N-methyl-azetidine-3-carboxamide], the fold induction at 1 µM was 10 to 100 and the fold induction at 10 µM lay within 1 to 10.

For `Cc1cc(Nc2ncn(-c3cnccn3)n2)cc(N2CC(N3CCCOCC3)C2)c1` [Compound 825, N-[3-methyl-5-[3-(1,4-oxazepan-4-yl)azetidin-1-yl]phenyl]-1-pyrazin-2-yl-1,2,4-triazol-3-amine], the fold induction at 1 µM fell in the range of 10 to 100 and the fold induction at 10 µM fell in the range of 10 to 100.

Take `Fc1cccc(-n2cnc(Nc3cc(Cl)cc(N4CC(N5CCOCC5)C4)c3)n2)c1` [Compound 827, N-[3-chloro-5-(3-morpholinoazetidin-1-yl)phenyl]-1-(3-fluorophenyl)-1,2,4-triazol-3-amine]: the fold induction at 1 µM was 10 to 100 and the fold induction at 10 µM fell in the range of 1 to 10.

As for `Cc1cc(Nc2ccn(C)n2)cc(Nc2ncn(-c3ccccc3)n2)c1` [Compound 828, 5-methyl-N3-(1-methylpyrazol-3-yl)-N1-(1-phenyl-1,2,4-triazol-3-yl)benzene-1,3-diamine], the fold induction at 1 µM is 1 to 10 and the fold induction at 10 µM is at most 1.

As for `CCc1cc(Nc2ncn(-c3ccc(F)c(C)c3)n2)cc(N2CCN(C3COC3)CC2)c1` [Compound 829, N-[3-ethyl-5-[4-(oxetan-3-yl)piperazin-1-yl]phenyl]-1-(4-fluoro-3-methyl-phenyl)-1,2,4-triazol-3-amine], the fold induction at 1 µM is 1 to 10 and the fold induction at 10 µM was at most 1.

On to `CC(C)Oc1cc(Nc2ncn(-c3cc(F)cc(F)c3)n2)cc(N2CC(N3CCOCC3)C2)c1` [Compound 830, 1-(3,5-difluorophenyl)-N-[3-isopropoxy-5-(3-morpholinoazetidin-1-yl)phenyl]-1,2,4-triazol-3-amine], for which the fold induction at 1 µM was 100 to 1000 and the fold induction at 10 µM is 10 to 100.

As to `Cc1cc(Nc2ncn(-c3cc(F)cc(F)c3)n2)cc(N2CCN3CC(F)(F)C[C@H]3C2)c1` [Compound 831, N-[3-[(8aS)-7,7-difluoro-13,4,6,8,8a-hexahydropyrrolo[1,2-a]pyrazin-2-yl]-5-methyl-phenyl]-1-(3,5-difluorophenyl)-1,2,4-triazol-3-amine], the fold induction at 1 µM lay in the range of 10 to 100 and the fold induction at 10 µM fell in the range of 10 to 100.
